Data published in patent US9012455B2, “Pharmaceutical compositions containing an indoyl isoquinoline containing compound and uses thereof” (The Regents of the University of California, priority 2006, dated 2015).
Where “and” joins values, the source holds several entries; their conditions need not be identical. Equal entries are not always repeated. Where two headings read alike, the source gives them in different places.

Tests used:
[1] = test system: Ba/F3-p210 cells; test: Western blot of protein expression; type: cell-based, murine; settings: 0.1-0.6 μM imatinib, absence of IBR2
Excerpt: The inventors then examined the effects of co-treatment on Rad51, BCR-ABL, and Stat5 protein expression levels as described above.

[2] = test system: Ba/F3-p210 cells; test: percentage of apoptotic cells; type: cell-based, murine; settings: 48 hours
Excerpt: Since Rad51 and BCR-ABL are in the same pathway essential for cell survival, it was contemplated that simultaneous treatment of Ba/F3-p210 cells with both inhibitors may synergistically enhance the cell death. […] Exemplary results are depicted in FIGS. 4A and 4B.

[3] = test system: K562 cells; test: Western blot of protein expression; type: cell-based, human; settings: imatinib, absence of IBR2
Excerpt: The inventors then examined the protein expression levels of Rad51, BCR-ABL and Stat5 by western blot analysis.

[4] = test system: human blast crisis CML K562 cells; test: percentage of apoptotic cells; type: cell-based
[5] = target: T1, Rad51-BRC repeat binding (Homo sapiens, UniProt Q06609); test: SPR (Biacore) competitive binding assay, solution competition format
T1 sequence (Q06609 1-339): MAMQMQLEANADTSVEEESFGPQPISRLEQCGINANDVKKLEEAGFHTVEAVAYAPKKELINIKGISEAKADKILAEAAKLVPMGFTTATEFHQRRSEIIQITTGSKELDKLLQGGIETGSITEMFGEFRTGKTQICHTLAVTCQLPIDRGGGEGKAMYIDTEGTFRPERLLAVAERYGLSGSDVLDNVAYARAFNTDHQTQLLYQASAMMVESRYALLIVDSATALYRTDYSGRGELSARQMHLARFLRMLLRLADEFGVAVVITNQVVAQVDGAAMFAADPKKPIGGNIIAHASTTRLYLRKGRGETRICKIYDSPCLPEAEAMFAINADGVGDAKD
Description: Therefore, the 5-position of indole ring may provide a potential site for further modification. The inventors also noticed that there is a chiral center in the IBR compounds as marked by an asterisk in FIG. 1B. Initially, the inventors separated these two enantiomers by chiral HPLC (Regis Whelk-O1, Hexane:isopropanol=75:25) as shown in chromatogram of FIG. 1C and determined the absolute configuration by X-ray crystallography. […] Here, the inhibition of Rad51-BRC repeat binding was analyzed by SPR in a solution competition format.
Successful entities are then analyzed with Biacore's surface plasmon resonance (SPR) technique in a solution competition format to determine their median inhibitory concentration on Rad51. Briefly, the assays are performed on a Biacore 3000 (Biacore Inc.) using a Sensor chip NTA (Biacore Inc.) for capturing His-tagged Rad51 protein. The concentration of BRC protein is kept constant. Compounds are dissolved in DMSO at 20 mM and serially diluted in each BRC test sample. The assays are performed at 25° C. in running buffer (10 mM HEPES, 150 mM NaCl, 0.1% DMSO). Relative BRC-Rad51 binding percentage in the presence of inhibitors is calculated. The experiments are carried out in triplicate and averaged. The best-fit competitive binding curve is drawn and median inhibitory concentration of each candidate compound is obtained. The results of these assays are thought to help to establish a quantitative structure-activity relationship, which in turn guides further optimization of the positive hits.
To further determine the binding affinity of IBR2 to Rad51, the inventors then used a Biacore competitive binding assay.

[6] = test system: BRC repeat; test: SPR compound pretreatment, immobilized BRC repeat; type: binding
Description: (§1) To determine whether it was Rad51 or BRC repeat that actually served as a direct target of these compounds, surface plasmon resonance (SPR) was employed to detect the inhibition of protein binding by compound pretreatment. In principle, one of the proteins was attached to the sensor chip, and IBR compounds were allowed to pass through the surface; then, the binding of the second protein was measured. If IBR compounds bind the immobilized protein, the binding of the second protein will be reduced; otherwise, the binding capacity of second protein will be mostly retained.

[7] = test system: Ba/F3 cells carrying BCR-ABL expression; test: Western blot of BCR-ABL/Stat5/Rad51 pathway; type: cell-based, murine
Description: To examine the consequence of the BCR-ABL/Stat5/Rad51 regulatory pathway, the protein expression as well as their phosphorylation states in IBR2-treated cells were analyzed by Western blot. […] On the contrary, there was little effect on Ba/F3 parental cells. The decrease of Rad51 expression in IBR2-treated cells is consistent with the inventors′ earlier observation that IBR2 induces Rad51 degradation mediated by proteasome in breast cancer cells. Furthermore, the inventors performed the same set of experiments using compound B6, which has no inhibitory activity to Rad51 in vitro.

[8] = test system: Ba/F3-T315I cells; test: survival of NOD/SCID mice injected with Ba/F3-T315I cells; type: in vivo; settings: 100 mg/kg, 30 days, vs vehicle, p<0.01
[9] = test system: Ba/F3 cells expressing T315I BCR-ABL; test: XTT growth inhibition; type: cell-based, murine; settings: Mus musculus, BaF3, 48 hr
Description: (§2) In CML cells, the constitutively active BCR-ABL is responsible for maintaining high levels of Rad51 activity by direct activation through phosphorylation and transcriptional up-regulation mediated by STAT5. It is therefore contemplated that inhibition of Rad51 activity by IBR2 may have detrimental effects on CML. To test this possibility, murine hematopoietic Ba/F3 progenitor cells expressing different versions of BCR-ABL (e.g., wild-type, T315I, and E255K) mutants were treated with IBR2 at indicated concentrations for 48 hr, and growth inhibition was then determined by XTT (sodium 3′-[1-(phenylaminocarbonyl)-3,4-tetrazolium]-bis(4-methoxy-6-nitro) benzene sulfonate) assay. […] To further test whether the growth inhibition was resulted from cell death or cytostatic effect of IBR2 treatment, the inventors then determined the percentages of annexin V positive cells, which is indicative of cell death, after IBR2 treatment.

[10] = test system: Ba/F3-T315I cells; test: Western blot of protein expression; type: cell-based, murine; settings: 20 μM IBR2 alone, within 12-24 hours
Excerpt: Direct targeting to Rad51 may provide a potential strategy to overcome this type of resistance. […] Next, the inventors examined the effects of IBR2 treatment on the protein expression levels in these cells by western blot.

[11] = target: T2, Rad51 (Homo sapiens, UniProt Q06609); test: SPR compound pretreatment, immobilized Rad51; type: binding
T2 sequence (Q06609 1-339): T1 sequence (Q06609 1-339)
Description: as §1

[12] = test system: Ba/F3 cells expressing WT, T315I or E255K BCR-ABL; test: annexin V positive cells (apoptosis); type: cell-based, murine; settings: dose dependent
Description: as §2

[13] = test system: BCR-ABL-expressing Ba/F3 cells; test: XTT growth inhibition; type: cell-based, murine; settings: 48 hr
Description: as §2
To examine the consequence of the BCR-ABL/Stat5/Rad51 regulatory pathway, the protein expression as well as their phosphorylation states in IBR2-treated cells were analyzed by Western blot. […] On the contrary, there was little effect on Ba/F3 parental cells. The decrease of Rad51 expression in IBR2-treated cells is consistent with the inventors′ earlier observation that IBR2 induces Rad51 degradation mediated by proteasome in breast cancer cells. […]

[14] = target: T3, BRC-RAD51 interaction (Homo sapiens, UniProt Q06609); test: inducible reverse yeast two-hybrid screening; type: cell-based
T3 construct: expressed in transfected cells; host or cells: yeast strain harboring a TetOp-driven URA3 gene
T3 sequence (Q06609 1-339): T1 sequence (Q06609 1-339)
Description: Briefly, two fusion proteins, the TetR-BRC fusion protein (TetR/NCB, constitutively expressed) and the Rad51-activation domain fusion protein (AD/Rad51, expressed under the GAL1 promoter), worked together as a transcriptional activator in a yeast strain harboring a TetOp-driven URA3 gene. The interaction between these two fusion proteins induced the expression of URA3 gene, and the toxic metabolite from 5-FOA in the medium caused cell death. If the small molecules tested inhibited TetR/BRC/AD/Rad51 interaction, URA3 expression was abolished and cells are allowed to grow.
The reverse yeast two-hybrid system is used to perform the second round screening of the modified small compounds. TetR/NCB fission protein which contains BRC1-4 repeats (TetR/NCB) are expressed constitutively; the expression of a RAD51-GAL4 Activation Domain fusion protein (AD/RAD51) is rendered galactose-inducible under GAL1 promoter. Yeast is grown on a galactose medium containing 5-FOA. The assay is performed on 96-well plates. Small molecule compounds are added into the medium at the concentration of 10 mM in the total volume of 100 ml. The compounds that can disrupt the BRC-RAD51 interaction are identified by the viability of the yeast.

[15] = target: T2, Rad51; test: gel filtration profile of Rad51 (multimerization); type: biochemical; settings: data not shown
Description: To test this possibility, the inventors then compared the gel filtration profile of Rad51 incubated in the presence or absence of IBR2. […] The inventors then aligned the 3D structure of IBR2 with the BRC4 hairpin structure and the Rad51 oligomerization motif together. […] Therefore, one possibility of the action mechanism is that IBR compounds, by mimicking Phe1524 of BRCA2, may block the entrance of the hydrophobic binding pocket on Rad51 core domain, and inhibit BRCA2/Rad51 interaction as well as Rad51 multimerization.

[16] = test system: Ba/F3-p210 cells; test: median-effect and Combination Index analysis (Chou's method); type: cell-based, murine; settings: Mus musculus, read-out: median-effect dose (Dm)
[17] = test system: Rad51 foci formation in MCF-7 breast cancer cells; test: IR-induced Rad51 foci formation assay; type: cell-based
Description: These compounds were then tested for their effects on the IR-induced Rad51 foci formation in MCF-7 breast cancer cells. […] These compounds were then tested for their effects on the IR-induced Rad51 foci formation in MCF-7 breast cancer cells as also described in WO 2006/044933.

[18] = test system: Ba/F3 parental cells; test: XTT growth inhibition; type: cell-based, murine; settings: 48 hr
[19] = test system: Ba/F3 parental cells; test: Western blot of protein expression; type: cell-based, murine; settings: IBR2-treated
Description: To examine the consequence of the BCR-ABL/Stat5/Rad51 regulatory pathway, the protein expression as well as their phosphorylation states in IBR2-treated cells were analyzed by Western blot.

[20] = test system: Ba/F3-T315I cells; test: induction of cell death; type: cell-based, murine; settings: 20 μM IBR2 alone
[21] = test system: Ba/F3-P210; test: cell growth (viable cell count / XTT); type: cell-based; settings: 0 to 20 μM, up to three days, dose-dependent
Description: (§3) The inventors also examined the effect of IBR2 on growth of Ba/F3 expressing wild type Bcr-Abl-P210 and Bcr-Abl mutant isoform T315I. […] FIG. 9 illustrates the effect of IBR2 on parental Ba/F3 cells and Ba/F3 cells expressing WT Bcr-Abl or Bcr-Abl mutant isoform T315I cells. […] After 72 hours of incubation, proliferation was measured by XTT-based method. Absorbance was measured at 490 nm in a microplate reader. Bars are SD, n=2.

[22] = test system: Ba/F3-T315I; test: cell growth (viable cell count / XTT); type: cell-based; settings: 0 to 20 μM, up to three days, dose-dependent
Description: as §3

[23] = SPR, solution competition format, read-out: median inhibition concentration

Cc1ccc(NC(=O)c2ccc(CN3CCN(C)CC3)cc2)cc1Nc1nccc(-c2cccnc2)n1 [imatinib]
Rad51, BCR-ABL, p-BCR-ABL and p-Stat5 levels [1]: modestly decreased | Stat5 protein level [1]: did not influence | apoptotic cells ([2]; imatinib 0.1 μM): about 6.8% | apoptotic cells ([2]; imatinib 0.2 μM): ~7.6% and ~10% | apoptotic cells ([2]; imatinib 0.4 μM): ~23.1% | apoptotic cells ([2]; imatinib 0.6 μM): ~39.3% | Rad51, BCR-ABL, p-BCR-ABL, p-Stat5 levels [3]: decreased in a dose dependent manner | Stat5 protein level [3]: did not affect | apoptotic percentage ([4]; imatinib 0.1 μM): about 9.7% | apoptotic percentage ([4]; imatinib 0.2 μM): ~11.8% | apoptotic percentage ([4]; imatinib 0.6 μM): ~28.1%

O=S(=O)(Cc1ccccc1)N1C=Cc2ccccc2[C@@H]1c1c[nH]c2ccccc12 [R-IBR2]
IC50 [5, 23]: ~1 nM

O=S(=O)(Cc1ccccc1)N1C=Cc2ccccc2C1c1c[nH]c2ccccc12 (centres unmarked) [IBR2]
binding of immobilized BRC repeat to Rad51 after compound pretreatment [6]: did not affect | Rad51, BCR-ABL and phosphorylated Stat5 (p-Stat5) levels [7]: dose-dependent decreases | c-Abl, p-c-Abl and total Stat5 protein [7]: unchanged | survival of mice [8]: significantly prolonged survivals | IC50 [9]: 12000 nM | protein expression levels of Rad51, BCR-ABL, p-BCR-ABL and p-Stat5 [10]: dramatically reduced | binding of BRC repeat to immobilized Rad51 after compound pretreatment [11]: lost the ability to bind BRC repeat | apoptosis (annexin V positive cells) [12]: induced apoptosis | proliferation [13]: inhibited the proliferation | apoptotic cells ([2]; IBR2 5 μM): about 1.7% | apoptotic cells ([2]; IBR2 10 μM): ~4.1% | apoptotic cells ([2]; IBR2 15 μM alone): < 10% and ~12.6% | apoptotic cells ([2]; IBR2 20 μM): ~57.1% | yeast two-hybrid screening [14]: positive | Rad51 elution profile (multimerization) [15]: major peak consistent with the molecular weight of a monomer | IC50 ([5]; Biacore competitive binding assay, read-out: IC50): 110 nM | EC50 [16]: 13900 nM | IR-induced Rad51 foci formation [17]: dramatically reduced Rad51 foci formation | IR-induced Rad51 foci formation ([17]; listed as NS7798): positive | proliferation [18]: much less | protein expression and phosphorylation [19]: little effect | cell death [20]: over 80% | cell growth [21]: significantly inhibited the growth | cell growth [22]: significantly inhibited the growth | apoptotic percentage ([4]; IBR2 15 μM alone): ~10%

O=S(=O)(Cc1ccccc1)N1C=Cc2ccccc2C1c1c[nH]c2ccccc12 (racemic) [IBR2]
IC50 [5, 23]: ~115 nM
